Data: paper PMC5473928 (Scientific Reports, 2017)
Read-outs that look alike come from different tables or passages of the source. Each block holds one compound with its values, some of them ahead of it.

Legend:
KRas / SOS564–1049 = biological target: T1, KRas / SOS564–1049 (Homo sapiens, UniProt P01116); experiment: SOS catalyzed nucleotide exchange on KRas:nucleotide complexes, stopped-flow, excess SOS (Fig. 3A); format: biochemical; details: not reached in SOS range used; from numerical simulations
T1 construct: His6 (cleaved yes); made in house
Protocol: (§1) All stopped-flow experiments were performed in a SX-20 stopped-flow apparatus (Applied Photophysics) at 25 °C in a buffer consisting of 20 mM Hepes pH 7.5, 100 mM NaCl, 1 mM TCEP, 2 mM MgCl2 (excitation with 360 nm LED, emission detection with a 420 nm cut-off filter).

KRasWT = biological target: T2, KRasWT (Homo sapiens, UniProt P01116); experiment: Stopped-flow competition binding of nucleotides to nucleotide-free KRas (mantdGDP or mantdGDPβMe fluorescence, global fit); details: for koff: read-out: dissociation rate constant (koff)
T2 construct: His6 (cleaved yes); made in house
Protocol: A method which leads to estimates of the kinetic parameters as well as the affinity involves stopped-flow measurements of association of fluorescent nucleotides with nucleotide-free Ras followed by competiton between fluorescent and non-fluorescent nucleotides to obtain the parameters for the non-labelled substances.
as §1

HRas = tested on: HRas; design: method as in PMID 2200519; details: cited from earlier work; for dissociation rate constant (koff): value reported for HRas; for Kd: weakly bound competitor of mantdGDP
KRas = tested on: KRas; design: method as in PMID 8419371; details: Mg^2+ reduced from a physiologically realistic value to 0.1 µM; cited from earlier work
HRasF28L = tested on: HRasF28L; design: method as in PMID 1894650; details: HRasF28L mutant; cited from earlier work
KRasG12C [1] = biological target: T3, KRasG12C (Homo sapiens, UniProt P01116, C118S/C51S/C80L/G12C); experiment: ESI-MS monitoring of the covalent reaction with KRasG12C; format: biochemical
T3 construct: KRas1–169 G12C C51S C80L C118S were cloned into a modified pET19 expression vector; His6 (cleaved yes); made in house
Protocol: An independent confirmation of the rapid covalent reaction of SML-8-73-1 with KRasG12C was obtained by mixing the compound with the nucleotide-free protein followed by ESI-MS.
In order to test the predictions arising from the simulations in the case of SML-8-73-1, we have performed a number of semi-quantitative experiments using mass spectrometric analysis.
To allow comparison with published work, further experiments were performed at 37°. In the first experiment, the conditions described by Hunter et al.[21] were duplicated (15 µM KRasG12C, 150 µM SML-8-73-1, no added Mg^2+ ions).
In this case, there was very rapid generation of the covalent adduct, so that the first time of measurement (designated as time zero in the figure, but in practice after ca. 10 min), the reaction was practically complete (Fig. S3F).
The covalent reaction of SML-8-73-1 with KRasG12C was monitored by mass spectrometry. 200 µM SML-8-73-1 was added to the nucleotide-free protein (50 µM), 5 mM dithioerythritol (DTE) was added after ~20 s and the extent of modification monitored by ESI-MS.
For the measurements described in Fig. S3, KRasG12C and SML 8-73-1 were incubated in 20 mM HEPES pH 7.5 and 50 mM NaCl. The conditions are as mentioned in the figure. For each time point, the reaction was stopped by the addition of DTT (to 5 mM final concentration) and acetonitrile (to 25%).

KRasG12C [2] = biological target: T3, KRasG12C; experiment: Stopped-flow competition binding and covalent reaction with nucleotide-free KRasG12C (mantdGDPβMe fluorescence, global fit); details: 25 °C
Protocol: as §1

KRasG12C [3] = biological target: T3, KRasG12C; details: cited from earlier work
[4] = KRasWT, 25 °C, global fit of stopped-flow competition
[5] = KRasWT, 25 °C, global fit of stopped-flow competition, read-out: association rate constant (kon)
[6] = read-out: association rate constant (kon)

maximal (limiting) rate constant for nucleotide release by SOS (KRas / SOS564–1049): > 5 s⁻¹
association rate constant (kon) (KRasWT; [4]): 4.9e+06 M⁻¹ s⁻¹
dissociation rate constant (koff) (KRasWT; [4]): 0.4 s⁻¹
SMILES: CNc1ccccc1C(=O)O[C@H]1C[C@H](n2cnc3c(=O)[nH]c(N)nc32)O[C@@H]1COP(=O)(O)OP(=O)(O)OC [mantdGDPβMe]

association rate constant (kon) (KRasWT; [4]): 3.2e+06 M⁻¹ s⁻¹
SMILES: CNc1ccccc1C(=O)O[C@H]1C[C@H](n2cnc3c(=O)[nH]c(N)nc32)O[C@@H]1COP(=O)(O)OP(=O)(O)O [mantdGDP]
dissociation rate constant (koff) (HRas): ca. 10^−4 s^−1

kon (KRasWT; [5]): 1.29e+07 M⁻¹ s⁻¹
koff (KRasWT; [4]): 0.1 s⁻¹
Kd (KRasWT; read-out: Kd): 8.5 nM
SMILES: Nc1nc2c(ncn2COCCOP(=O)(O)OP(=O)(O)OP(=O)(O)O)c(=O)[nH]1 [acyclovir triphosphate]

kon (KRasWT; [5]): 8.2e+06 M⁻¹ s⁻¹
Kd (KRasWT; read-out: Kd): 0.02 nM
kon (KRasWT; read-out: association rate constant (binding scheme, Fig. 1A)): 8.7e+06 ± 40000 M⁻¹ s⁻¹
SMILES: Nc1nc2c(ncn2C2OC(COP(=O)(O)OP(=O)(O)O)C(O)C2O)c(=O)[nH]1 (stereo not drawn) [GDP]
dissociation rate constant (koff) (HRas): ca. 10^−4 s^−1
factor of acceleration of GDP release (KRas): more than 200
factor of increase of the rate constant for GDP dissociation (HRasF28L): ca. 140

kon (KRasWT; [5]): 7.4e+06 M⁻¹ s⁻¹
koff (KRasWT; [4]): 1 s⁻¹
period over which covalent modification occurred (KRasG12C [1]; 200 µM SML-8-73-1, 50 µM nucleotide-free KRasG12C, DTE quench): tens of seconds to minutes
extent of covalent reaction after 52 h (KRasG12C [1]; 25°, simulation conditions (20 µM inhibitor, 400 µM GTP, 40 µM GDP) but 10 µM KRas, Fig. S3A): almost no reaction
time to 50% reaction (KRasG12C [1]; 37°, 15 µM KRasG12C, 150 µM SML-8-73-1, no added Mg^2+ (ca. 20 µM free), Fig. S3B): 1 to 2 h
extent of covalent reaction after 51 h (KRasG12C [1]; 37°, 1.5 mM each of GTP and GTP and 3 mM Mg^2+, Fig. S3E): a few percent
kon (KRasG12C [2]; [6]): 4.1e+06 M⁻¹ s⁻¹
koff (KRasG12C [2]; read-out: dissociation rate constant (koff)): 0.9 s⁻¹
kinact (KRasG12C [2]; read-out: rate constant for the covalent reaction (kinact)): 0.1 s⁻¹
SMILES: Nc1nc2c(ncn2[C@@H]2O[C@H](COP(=O)(O)OP(=O)(O)OCCNC(=O)CCl)[C@@H](O)[C@H]2O)c(=O)[nH]1 [SML-8-73-1]
rate constant for the covalent reaction (KRasG12C [3]): 0.014 s⁻¹
Kd (KRasG12C [3]; read-out: Kd for the reversible binding step): 9 nM

SMILES: Nc1nc2c(ncn2[C@@H]2O[C@H](COP(=O)(O)O)[C@@H](O)[C@H]2O)c(=O)[nH]1 [GMP]
Kd (HRas): 29000 nM

SMILES: Nc1nc2c(ncn2[C@@H]2O[C@H](CO)[C@@H](O)[C@H]2O)c(=O)[nH]1 [guanosine]
Kd (HRas): 153000 nM

SMILES: COP(=O)(O)OP(=O)(O)OCC1OC(n2cnc3c(=O)[nH]c(N)nc32)C(O)C1O (stereo not drawn) [GDPβMe, β-methyl ester of GDP]
Kd (KRasWT): 130 nM
inhibition of mantdGDP binding at equilibrium (KRasWT; 3x excess of GDPβMe over mantdGDP): no significant inhibition
affinity of KRas relative to GDP (KRasWT; from similar kon and faster koff): ca. 4 orders of magnitude lower
release rate relative to GDP (KRasWT; koff of GDPβMe vs koff of GDP): approximately 10^4 times faster
kon (KRasWT; [6]): 5.8e+06 M⁻¹ s⁻¹
koff (KRasWT): 0.8 s⁻¹
